Experimental data as given in US20120328530A1, “TOLUIDINE BLUE DERIVATIVES AS PHOTOSENSITISING COMPOUNDS” (PHARMALUCIA LIMITED, priority 2010, published 2012).

Experiments:
Type in all cases: cell-based
[1] = system: Enterococcus faecalis (NCIMB 13280); test: Photobactericidal efficacy, minimum bactericidal concentration; conditions: 10^6 cfu/ml, 1 hour at 37° C. with photosensitiser, illuminated twenty minutes, LEDs 660 nm, 6.2 J cm^-2; table does not say light or dark
Experimental: (§1) The photobactericidal efficacies of the compounds of examples 2a to 2d in addition to that of the known photosensitiser methylene blue were measured against both Gram positive Staphylococcus aureus (NCTC 6571), Enterococcus faecalis (NCIMB 13280) and Propionibacterium acnes (NCTC 737) and Gram negative Escherichia coli (NCTC 10418), Proteus mirabilis (NCIMB 5887) and a clinical strain of Pseudomonas aeruginosa bacteria. Propionibacterium acnes was grown in reinforced clostridial medium. All other strains were grown in Mueller-Hinton Broth and then diluted to a concentration of 10^6 colony-forming units/ml. Aliquots of the strains were then incubated for 1 hour at 37° C. in microtitre trays with various concentrations of photosensitiser in doubling dilutions from 100 μM, with zero photosensitiser concentrations in each case for control purposes. The trays were then either illuminated for twenty minutes using an array of light-emitting diodes (660 nm) giving a light dose of 6.2 J cm^−2 or alternatively foil-covered to provide dark controls. From each well showing an inhibition of growth of the micro-organism, 1 μl was sub-cultured on nutrient agar, using the Miles-Misra method, and incubated for 18 hours at 37° C. The minimum bactericidal concentrations were then determined as the lowest concentration for each photosensitiser giving no bacterial growth.

[2] = system: Escherichia coli (NCTC 10418); test: as above; conditions: NCTC10418, 10^6 cfu/ml, 1 hour at 37° C. with photosensitiser, illuminated twenty minutes, LEDs 660 nm, 6.2 J cm^-2, table does not say light or dark, read-out: minimum concentration needed to achieve the antibacterial activity (minimum bactericidal concentration), E. coli
Experimental: as §1

[3] = system: Propionibacterium acnes (NCTC 737); test: as above; conditions: Cutibacterium acnes, NCTC737; reinforced clostridial medium, 1 hour at 37° C. with photosensitiser, illuminated twenty minutes, LEDs 660 nm, 6.2 J cm^-2; table does not say light or dark; read-out: minimum concentration needed to achieve the antibacterial activity (minimum bactericidal concentration), Prop. acnes
Experimental: as §1

[4] = system: Proteus mirabilis (NCIMB 5887); test: as above; conditions: 10^6 cfu/ml, 1 hour at 37° C. with photosensitiser, illuminated twenty minutes, LEDs 660 nm, 6.2 J cm^-2; table does not say light or dark
Experimental: as §1

[5] = system: Staphylococcus aureus (NCTC 6571); test: as above; conditions: NCTC6571, 10^6 cfu/ml, 1 hour at 37° C. with photosensitiser, illuminated twenty minutes, LEDs 660 nm, 6.2 J cm^-2, table does not say light or dark, read-out: minimum concentration needed to achieve the antibacterial activity (minimum bactericidal concentration), S. aureus
Experimental: as §1

[6] = system: clinical strain of Pseudomonas aeruginosa; test: as above; conditions: 10^6 cfu/ml, 1 hour at 37° C. with photosensitiser, illuminated twenty minutes, LEDs 660 nm, 6.2 J cm^-2, table does not say light or dark
Experimental: as §1

[7] = system: Candida albicans (NCPF 8179); test: Antifungal screening, minimum concentration; conditions: Sabouraud broth and agar, carried out similarly: illuminated twenty minutes, LEDs 660 nm, 6.2 J cm^-2; table does not say light or dark
Experimental: as §1
Antifungal screening was carried out similarly against the yeast Candida albicans (NCPF 8179), using Sabouraud broth and agar.

| SMILES | minimum concentration needed to achieve the antibacterial activity (minimum bactericidal concentration), Enterococcus facecalis [1] [µmol/L] | MBC [2] [µM] | MBC [3] [µM] | minimum concentration needed to achieve the antibacterial activity (minimum bactericidal concentration), Proteus mirabilis [4] [µmol/L] | MBC [5] [µM] | minimum concentration needed to achieve the antibacterial activity (minimum bactericidal concentration), Pseudomonas Aeruginosa [6] [µmol/L] | minimum concentration needed to achieve the antifungal activity, Candida albicans [7] [µmol/L] |
| --- | --- | --- | --- | --- | --- | --- | --- |
| CCc1cc2nc3ccc(N(C)C)cc3[s+]c2cc1N [Compound 2a] | 1.35 | 1.47 | 0.78 | 5.50 | 3.13 | 3.13 | 3.13 |
| CCCc1cc2nc3ccc(N(C)C)cc3[s+]c2cc1N [Compound 2b, 3-Amino-7-(dimethylamino)-2-n-propylphenothiazinium hydrogensulphate] | 0.33 | 1.32 | 0.78 | 5.32 | 3.13 | 0.78 | 0.78 |
| CN(C)c1ccc2nc3cc(C(C)(C)C)c(N)cc3[s+]c2c1 [Compound 2c, 3-Amino-2-tert-butyl-7-(dimethylamino)phenothiazinium hydrogensulphate] | – | 3.13 | 0.78 | – | 3.13 | 0.39 | 3.13 |
| CN(C)c1ccc2nc3cc(-c4ccccc4)c(N)cc3[s+]c2c1 [Compound 2d, 3-Amino-7-(dimethylamino)-2-phenylphenothiazinium hydrogensulphate] | – | 3.13 | – | – | 3.13 | – | 0.78 |
| Cc1cc2c(cc1N)=[SH]c1cc(N(C)C)ccc1N=2 [toluidine blue, Toluidine blue] | 7.36 | – | – | 14.71 | – | 7.36 | 12.5 |
